Values quoted from earlier work, collected in US20080207644A1, “Therapeutic materials and methods” (priority 2006, published 2008).

Experiments:
[1] = 30 mg/kg oral
[2] = oral doses of 10-100 mg/kg
[3] = system: cancers; conditions: for mouth sores as side effect: human studies; for results in human studies: single agents or combinations, treatment of a variety of cancers
[4] = system: a variety of malignancies; conditions: intravenous 0.7 to 1.3 mg/m^2/dose biweekly

COc1cccc2nc(-c3cccs3)nc(NN3C(=O)CC(C)C3=O)c12 (stereo not drawn) [SPC-839]
oral efficacy in a rat model [1]: oral efficacy

Cc1ccc2nc(NCCN)c3ncc(C)n3c2c1 [BMS-345541]
efficacy in mouse studies [2]: effective

CO[C@H]1C[C@@H]2CC[C@@H](C)[C@@](O)(O2)C(=O)C(=O)N2CCCC[C@H]2C(=O)O[C@H]([C@H](C)C[C@@H]2CC[C@@H](OCCO)[C@H](OC)C2)CC(=O)[C@H](C)/C=C(\C)[C@@H](O)[C@@H](OC)C(=O)[C@H](C)C[C@H](C)/C=C/C=C/C=C/1C [everolimus]
mouth sores as side effect [3]: dose limiting toxicity
results in human studies [3]: positive results

CO[C@H]1C[C@@H]2CC[C@@H](C)[C@@](O)(O2)C(=O)C(=O)N2CCCC[C@H]2C(=O)O[C@H]([C@H](C)C[C@@H]2CC[C@@H](OC(=O)C(C)(CO)CO)[C@H](OC)C2)CC(=O)[C@H](C)/C=C(\C)[C@@H](O)[C@@H](OC)C(=O)[C@H](C)C[C@H](C)/C=C/C=C/C=C/1C [temsirolimus]
mouth sores as side effect [3]: dose limiting toxicity
results in human studies [3]: positive results

CC(C)C[C@H](NC(=O)[C@H](Cc1ccccc1)NC(=O)c1cnccn1)B(O)O [Velcade]
activity against malignancies [4]: activities against a variety of malignancies

CO[C@H]1C[C@@H]2CC[C@@H](C)[C@@](O)(O2)C(=O)C(=O)N2CCCC[C@H]2C(=O)O[C@H]([C@H](C)C[C@@H]2CC[C@@H](OP(C)(C)=O)[C@H](OC)C2)CC(=O)[C@H](C)/C=C(\C)[C@@H](O)[C@@H](OC)C(=O)[C@H](C)C[C@H](C)/C=C/C=C/C=C/1C [AP23573]
mouth sores as side effect [3]: dose limiting toxicity
results in human studies [3]: positive results
